The subject of data set [1] is Puccinia triticina. Briefly: Puccinia triticina test (wheat)/protective. The following applies: 192 h, 500 ppm active substance, protective, evaluation 8 days after inoculation, read-out: degree of effectiveness. The class given is in vivo. As for the experimental part: (§1) • Solvent: 50 parts by weight of N,N-dimethylacetamide • Emulsifier: 1 part by weight of alkylaryl polyglycol ether (polyoxyethylene (16) tristearylphenyl ether)
(§2) To prepare a suitable active substance composition, 1 part by weight of active substance is mixed with the given amounts of solvent and emulsifier and the concentrate is diluted to the desired concentration using water.
For the testing of protective effectiveness, young plants are sprayed with the active substance composition in the application rate given. After the spray coating has been dried on, the plants are sprayed with a suspension of spores of Puccinia triticina. The plants remain in an incubation chamber at 20° C. and 100% relative humidity for 48 hours. The plants are placed in a greenhouse at a temperature of approximately 20° C. and a relative humidity of approximately 80%.
(§3) Evaluation is carried out 8 days after the inoculation. In this connection, 0% means a degree of effectiveness corresponding to that of the control, while a degree of effectiveness of 100% means that no infestation is observed.

Data set [2] is described as follows: log P (pH 2.3). It counts as physicochemical.
Data set [3] has as its system Sphaerotheca fuliginea. Briefly: Sphaerotheca test (cucumber)/protective. The class given is in vivo. The following applies: Podosphaera fuliginea, 168 h, 500 ppm active substance, protective, evaluation 7 days after inoculation, read-out: degree of effectiveness. As for the experimental part: • Solvent: 49 parts by weight of N,N-dimethylformamide • Emulsifier: 1 part by weight of alkylaryl polyglycol ether (polyoxyethylene (16) tristearylphenyl ether) To prepare a suitable active substance composition, 1 part by weight of active substance is mixed with the given amounts of solvents and emulsifier and the concentrate is diluted to the desired concentration using water. For the testing of protective effectiveness, young cucumber plants are sprayed with the active substance composition in the application rate given. One day after treatment, the plants are inoculated with a suspension of spores of Sphaerotheca fuliginea. The plants are then placed in a greenhouse at 70% relative humidity and a temperature of 23° C. Evaluation is carried out 7 days after the inoculation. In this connection, 0% means a degree of effectiveness corresponding to that of the control, while a degree of effectiveness of 100% means that no infestation is observed.

In data set [4] the test system is Puccinia triticina. Briefly: Puccinia triticina test (wheat)/curative. The class given is in vivo. The conditions noted are these: 192 h, 500 ppm active substance, curative, evaluation 8 days after inoculation, read-out: degree of effectiveness. As for the experimental part: as §1, §2
For the testing of curative effectiveness, young plants are sprayed with a suspension of spores of Puccinia triticina. The plants remain in an incubation chamber at 20° C. and 100% relative humidity for 48 hours and are then sprayed with the active substance composition in the application rate given. The plants are placed in a greenhouse at a temperature of approximately 20° C. and a relative humidity of approximately 80%.
as §3

Data set [5] has as its system bean rust pathogen Uromyces appendiculatus. Kind of data set: Uromyces test (beans)/protective. The class given is in vivo. The conditions noted are these: 240 h, 100 ppm active substance, protective, evaluation 10 days after inoculation, read-out: degree of effectiveness. On the procedure:
(§4) • Solvents: 24.5 parts by weight of acetone • 24.5 parts by weight of dimethylacetamide • Emulsifier: 1 part by weight of alkylaryl polyglycol ether (polyoxyethylene (16) tristearylphenyl ether)
To prepare a suitable active substance composition, 1 part by weight of active substance is mixed with the given amounts of solvents and emulsifier and the concentrate is diluted to the desired concentration using water.
For the testing of protective effectiveness, young plants are sprayed with the active substance composition in the application rate given. After the spray coating has been dried on, the plants are inoculated with an aqueous suspension of the spores of the bean rust pathogen Uromyces appendiculatus and then remain in an incubation chamber at approximately 20° C. and 100% relative humidity for 1 day.
The plants are then placed in a greenhouse at approximately 21° C. and a relative humidity of approximately 90%.
Evaluation is carried out 10 days after the inoculation. In this connection, 0% means a degree of effectiveness corresponding to that of the control, while a degree of effectiveness of 100% means that no infestation is observed.

The subject of data set [6] is Alternaria solani. Kind of data set: Alternaria test (tomato)/protective. The following applies: 72 h, 100 ppm active substance, protective, evaluation 3 days after inoculation, read-out: degree of effectiveness. It counts as in vivo. On the procedure: as §4
To prepare a suitable active substance composition, 1 part by weight of substance is mixed with the given amounts of solvents and emulsifier and the concentrate is diluted to the desired concentration using water.
For the testing of protective effectiveness, young plants are sprayed with the active substance composition in the application rate given. After the spray coating has been dried on, the plants are inoculated with an aqueous suspension of spores of Alternaria solani. The plants are then placed in an incubation chamber at approximately 20° C. and 100% relative humidity.
Evaluation is carried out 3 days after the inoculation. In this connection, 0% means a degree of effectiveness corresponding to that of the control, while a degree of effectiveness of 100% means that no infestation is observed.

Molecules are shown by their SMILES.

In general, logP refers to a log measure of how a compound divides between an organic and an aqueous phase. Low values mean lower lipophilicity, high ones higher lipophilicity.

For the compound `CCN(C)C=Nc1cc(C)c(Oc2nc(C3(Cl)CC3)ns2)cc1Cl` [Compound 3, N′-(2-chloro-4-{[3-(1-chlorocyclopropyl)-1,2,4-thiadiazol-5-yl]oxy}-5-methylphenyl)-N-ethyl-N-methylimidoformamide], the pest or weed control at 500 ppm in data set [1], in data set [3] and in data set [4] was at least 70% throughout. The compound further yielded a logP in data set [2] of 1.62. For `O=c1oc(CCc2ccc(Cl)cc2)ns1` [5-[2-(4-Chlorophenyl)ethyl]-1,3,4-oxathiazol-2-one], the logP in data set [2] was found to be 3.36. Consider `Cc1cc(N)c(Cl)cc1Oc1nc(CCc2ccc(Cl)cc2)ns1` [2-Chloro-4-({3-[2-(4-chlorophenyl)ethyl]-1,2,4-thiadiazol-5-yl}oxy)-5-methylaniline], for which, in data set [2], the logP is 4.5. In the case of `Cc1ccc(S(=O)(=O)c2nc(CCc3ccc(Cl)cc3)ns2)cc1` [3-[2-(4-Chlorophenyl)ethyl]-5-[(4-methylphenyl)sulphonyl]-1,2,4-thiadiazole], in data set [2], the logP worked out at 4.62. On to `Cc1cc(N)c(Cl)cc1Oc1nc(C2(Cl)CC2)ns1` [2-Chloro-4-{[3-(1-chlorocyclopropyl)-1,2,4-thiadiazol-5-yl]oxy}-5-methylaniline], for which the logP in data set [2] turned out to be 3.5. Consider `Cc1cc(/N=C\N2CCCCC2)c(Cl)cc1Oc1nc(CCc2ccc(Cl)cc2)ns1` [Compound 10, 2-chloro-4-({3-[2-(4-chlorophenyl)ethyl]-1,2,4-thiadiazol-5-yl}oxy)-5-methyl-N-[(Z)-piperidin-1-ylmethylidene]aniline], for which, in data set [2], the log partition coefficient (logP) turned out to be 2.64. For the compound `CCN(C)/C=N/c1cc(C)c(Oc2nc(Cc3ccccc3)ns2)cc1Cl` [Compound 14, N′-{4-[(3-benzyl-1,2,4-thiadiazol-5-yl)oxy]-2-chloro-5-methylphenyl}-N-ethyl-N-methylimidoformamide], the pest or weed control at 500 ppm in data set [1], in data set [3] and in data set [4] was at least 70% throughout. For the same compound, the pest or weed control at 100 ppm in data set [5] and in data set [6] was at least 70% throughout.

The compound `Cc1ccc(S(=O)(=O)c2nc(C3(Cl)CC3)ns2)cc1` [3-(1-Chlorocyclopropyl)-5-{(4-methylphenyl)sulphonyl}-1,2,4-thiadiazole] registered a logP in data set [2] of 3.67.

These data come from US8334235B2, “Thiadiazolyloxyphenylamidines and use thereof as fungicides” (Bayer Cropscience AG, priority 2008, dated 2012).
